What all share (assay): relative viability (nuclei count vs DMSO), 5 days (fraction); higher = more cells survive
Compound in the assay “AZD5582 + Pictilisib”: C[C@@H](C(=O)N[C@@H](C1CCCCC1)C(=O)N2CCC[C@H]2C(=O)N[C@@H]3[C@@H](CC4=CC=CC=C34)OCC#CC#CCO[C@@H]5CC6=CC=CC=C6[C@@H]5NC(=O)[C@@H]7CCCN7C(=O)[C@H](C8CCCCC8)NC(=O)[C@H](C)NC)NC [AZD5582] + CS(=O)(=O)N1CCN(Cc2cc3nc(-c4cccc5[nH]ncc45)nc(N4CCOCC4)c3s2)CC1 [Pictilisib] (partner 1 µM)
The essentials: (§1)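 Lung cancer cell lines in 1536-well plates got either a single drug or a fixed anchor-drug dose together with five library-drug doses (not always all listed) in √10 steps, by pin tool, on the day after seeding. Nuclei were counted after 5 days, and relative viability is the treated-to-vehicle ratio of nuclei counts. Values are medians of duplicate plates.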

Compound in the assay “AZD5582 + Crizotinib”: C[C@@H](C(=O)N[C@@H](C1CCCCC1)C(=O)N2CCC[C@H]2C(=O)N[C@@H]3[C@@H](CC4=CC=CC=C34)OCC#CC#CCO[C@@H]5CC6=CC=CC=C6[C@@H]5NC(=O)[C@@H]7CCCN7C(=O)[C@H](C8CCCCC8)NC(=O)[C@H](C)NC)NC [AZD5582] + C[C@@H](Oc1cc(-c2cnn(C3CCNCC3)c2)cnc1N)c1c(Cl)ccc(F)c1Cl [Crizotinib] (partner 1 µM)
An outline of the steps: as §1

Compound in the assay “AZD5582 + OSI-027”: C[C@@H](C(=O)N[C@@H](C1CCCCC1)C(=O)N2CCC[C@H]2C(=O)N[C@@H]3[C@@H](CC4=CC=CC=C34)OCC#CC#CCO[C@@H]5CC6=CC=CC=C6[C@@H]5NC(=O)[C@@H]7CCCN7C(=O)[C@H](C8CCCCC8)NC(=O)[C@H](C)NC)NC [AZD5582] + COc1cccc2cc(-c3nc([C@H]4CC[C@H](C(=O)O)CC4)n4ncnc(N)c34)[nH]c12 [OSI-027] (partner 0.5 µM)
The essentials:
as §1

Compound in the assay “AZD5582 + Linsitinib”: C[C@@H](C(=O)N[C@@H](C1CCCCC1)C(=O)N2CCC[C@H]2C(=O)N[C@@H]3[C@@H](CC4=CC=CC=C34)OCC#CC#CCO[C@@H]5CC6=CC=CC=C6[C@@H]5NC(=O)[C@@H]7CCCN7C(=O)[C@H](C8CCCCC8)NC(=O)[C@H](C)NC)NC [AZD5582] + C[C@]1(O)C[C@@H](c2nc(-c3ccc4ccc(-c5ccccc5)nc4c3)c3c(N)nccn32)C1 [Linsitinib] (partner 1 µM)
The essentials:
as §1

Compound in the assay “AZD5582 + Tozasertib”: C[C@@H](C(=O)N[C@@H](C1CCCCC1)C(=O)N2CCC[C@H]2C(=O)N[C@@H]3[C@@H](CC4=CC=CC=C34)OCC#CC#CCO[C@@H]5CC6=CC=CC=C6[C@@H]5NC(=O)[C@@H]7CCCN7C(=O)[C@H](C8CCCCC8)NC(=O)[C@H](C)NC)NC [AZD5582] + Cc1cc(Nc2cc(N3CCN(C)CC3)nc(Sc3ccc(NC(=O)C4CC4)cc3)n2)n[nH]1 [Tozasertib] (partner 0.1 µM)
The essentials: as §1

On to HARA, for which the relative viability with AZD5582 + Pictilisib (first compound 0.001581 µM) came out at 0.553; in the assay with AZD5582 + Pictilisib (first compound 0.005 µM) it was 0.494; in the assay with AZD5582 + Pictilisib (first compound 0.01581 µM), 0.381; with AZD5582 + Pictilisib (first compound 0.05 µM), 0.338; with AZD5582 + Crizotinib (first compound 0.001581 µM), 1.01; with AZD5582 + Crizotinib (first compound 0.005 µM), 0.894. Also, the relative viability was found to be 1.04 in the assay with AZD5582 + Crizotinib (first compound 0.01581 µM); 1 with AZD5582 + Crizotinib (first compound 0.05 µM); 0.414 in the assay with AZD5582 + OSI-027 (first compound 0.001581 µM); 0.544 in the assay with AZD5582 + OSI-027 (first compound 0.005 µM); 0.362 in the assay with AZD5582 + OSI-027 (first compound 0.01581 µM); 0.307 with AZD5582 + OSI-027 (first compound 0.05 µM). Further, the relative viability was 1.01 with AZD5582 + Linsitinib (first compound 0.001581 µM); 0.897 with AZD5582 + Linsitinib (first compound 0.005 µM); 0.951 with AZD5582 + Linsitinib (first compound 0.01581 µM); 0.867 with AZD5582 + Linsitinib (first compound 0.05 µM); 0.0907 in the assay with AZD5582 + Tozasertib (first compound 0.001581 µM); 0.117 with AZD5582 + Tozasertib (first compound 0.005 µM). Further, the figures for the relative viability with AZD5582 + Tozasertib (first compound 0.01581 µM) and with AZD5582 + Tozasertib (first compound 0.05 µM) were 0.13 and 0.0952, respectively.
On to HCC-15, for which the relative viability with AZD5582 + Pictilisib (first compound 0.001581 µM) amounted to 0.566; with AZD5582 + Pictilisib (first compound 0.005 µM), 0.596; with AZD5582 + Pictilisib (first compound 0.01581 µM), 0.621; in the assay with AZD5582 + Pictilisib (first compound 0.05 µM), 0.509; in the assay with AZD5582 + Crizotinib (first compound 0.001581 µM), 0.646; with AZD5582 + Crizotinib (first compound 0.005 µM), 0.536. The relative viability with AZD5582 + Crizotinib (first compound 0.01581 µM) was determined as 0.754; with AZD5582 + Crizotinib (first compound 0.05 µM), 0.455; with AZD5582 + OSI-027 (first compound 0.001581 µM) it was 0.555; with AZD5582 + OSI-027 (first compound 0.005 µM), 0.617; in the assay with AZD5582 + OSI-027 (first compound 0.01581 µM), 0.504; with AZD5582 + OSI-027 (first compound 0.05 µM), 0.636. For the same cell line, the relative viability with AZD5582 + Linsitinib (first compound 0.001581 µM) stood at 0.832; in the assay with AZD5582 + Linsitinib (first compound 0.005 µM), 0.779; with AZD5582 + Linsitinib (first compound 0.01581 µM), 0.91; with AZD5582 + Linsitinib (first compound 0.05 µM), 0.721; in the assay with AZD5582 + Tozasertib (first compound 0.001581 µM), 0.375; with AZD5582 + Tozasertib (first compound 0.005 µM), 0.42. Also, the figures for the relative viability with AZD5582 + Tozasertib (first compound 0.01581 µM) and with AZD5582 + Tozasertib (first compound 0.05 µM) were 0.473 and 0.459, respectively.
For the cell line HCC-44, the relative viability with AZD5582 + Pictilisib (first compound 0.001581 µM) worked out at 0.485; with AZD5582 + Pictilisib (first compound 0.005 µM), 0.6; with AZD5582 + Pictilisib (first compound 0.01581 µM), 0.461; in the assay with AZD5582 + Pictilisib (first compound 0.05 µM), 0.233; with AZD5582 + Crizotinib (first compound 0.001581 µM), 0.5; in the assay with AZD5582 + Crizotinib (first compound 0.005 µM), 0.457. In addition, the relative viability with AZD5582 + Crizotinib (first compound 0.01581 µM) was 0.793; in the assay with AZD5582 + Crizotinib (first compound 0.05 µM), 0.378; with AZD5582 + OSI-027 (first compound 0.001581 µM), 0.42; with AZD5582 + OSI-027 (first compound 0.005 µM), 0.39; with AZD5582 + OSI-027 (first compound 0.01581 µM), 0.251; with AZD5582 + OSI-027 (first compound 0.05 µM), 0.255. Also, the relative viability amounted to 0.589 with AZD5582 + Linsitinib (first compound 0.001581 µM); 0.558 with AZD5582 + Linsitinib (first compound 0.005 µM); 0.616 in the assay with AZD5582 + Linsitinib (first compound 0.01581 µM); 0.432 in the assay with AZD5582 + Linsitinib (first compound 0.05 µM); 0.482 with AZD5582 + Tozasertib (first compound 0.001581 µM); 0.642 in the assay with AZD5582 + Tozasertib (first compound 0.005 µM). For the same cell line, the relative viability amounted to 0.798 in the assay with AZD5582 + Tozasertib (first compound 0.01581 µM) and 0.324 with AZD5582 + Tozasertib (first compound 0.05 µM).

For the origin of these results see the supplement of paper PMC10307832.
